Test results reported in the NIST ThermoML archive (doi:10.1016/j.jct.2007.09.009).
± gives the expanded uncertainty stated by the source.

What was measured:
[1] = xn = mol fraction of the nth substance listed; conditions: 313.15 K, 101 kPa, Liquid, Direct dilatometry
[2] = refractive index (Na D-line) (dimensionless); conditions: 298.15 K; 101.33 kPa; Liquid; Standard Abbe refractometry
[3] = 298.15 K; 101.33 kPa; Liquid; Pycnometric method

CC(=O)N(C)C [N,N-dimethylethanamide] + CO
excess molar volume ([1]; x1 = 0.0166): -5.83e-08 ± 3.1e-09 m3/mol
excess molar volume ([1]; x1 = 0.0295): -9.34e-08 ± 3.1e-09 m3/mol
excess molar volume ([1]; x1 = 0.0344): -1.106e-07 ± 3.2e-09 m3/mol
excess molar volume ([1]; x1 = 0.0508): -1.501e-07 ± 3.2e-09 m3/mol
excess molar volume ([1]; x1 = 0.0623): -1.832e-07 ± 3.2e-09 m3/mol
excess molar volume ([1]; x1 = 0.0717): -2.034e-07 ± 3.2e-09 m3/mol
excess molar volume ([1]; x1 = 0.0953): -2.561e-07 ± 3.3e-09 m3/mol
excess molar volume ([1]; x1 = 0.0979): -2.653e-07 ± 3.3e-09 m3/mol
excess molar volume ([1]; x1 = 0.1263): -3.178e-07 ± 3.3e-09 m3/mol
excess molar volume ([1]; x1 = 0.1366): -3.395e-07 ± 3.4e-09 m3/mol
excess molar volume ([1]; x1 = 0.169): -3.878e-07 ± 3.4e-09 m3/mol
excess molar volume ([1]; x1 = 0.1692): -3.91e-07 ± 3.4e-09 m3/mol
excess molar volume ([1]; x1 = 0.1997): -4.315e-07 ± 3.4e-09 m3/mol
excess molar volume ([1]; x1 = 0.2025): -4.324e-07 ± 3.4e-09 m3/mol
excess molar volume ([1]; x1 = 0.228): -4.611e-07 ± 3.5e-09 m3/mol
excess molar volume ([1]; x1 = 0.2317): -4.661e-07 ± 3.5e-09 m3/mol
excess molar volume ([1]; x1 = 0.2533): -4.845e-07 ± 3.5e-09 m3/mol
excess molar volume ([1]; x1 = 0.2599): -4.913e-07 ± 3.5e-09 m3/mol
excess molar volume ([1]; x1 = 0.2804): -5.069e-07 ± 3.5e-09 m3/mol
excess molar volume ([1]; x1 = 0.2837): -5.077e-07 ± 3.5e-09 m3/mol
excess molar volume ([1]; x1 = 0.3079): -5.225e-07 ± 3.6e-09 m3/mol
excess molar volume ([1]; x1 = 0.308): -5.222e-07 ± 3.6e-09 m3/mol
excess molar volume ([1]; x1 = 0.3093): -5.264e-07 ± 3.6e-09 m3/mol
excess molar volume ([1]; x1 = 0.3243): -5.305e-07 ± 3.5e-09 m3/mol
excess molar volume ([1]; x1 = 0.3406): -5.399e-07 ± 3.5e-09 m3/mol
excess molar volume ([1]; x1 = 0.3748): -5.488e-07 ± 3.5e-09 m3/mol
excess molar volume ([1]; x1 = 0.4031): -5.518e-07 ± 3.6e-09 m3/mol
excess molar volume ([1]; x1 = 0.4372): -5.508e-07 ± 3.6e-09 m3/mol
excess molar volume ([1]; x1 = 0.4807): -5.416e-07 ± 3.5e-09 m3/mol
excess molar volume ([1]; x1 = 0.5265): -5.238e-07 ± 3.5e-09 m3/mol
excess molar volume ([1]; x1 = 0.5817): -4.921e-07 ± 3.5e-09 m3/mol
excess molar volume ([1]; x1 = 0.5988): -4.766e-07 ± 3.5e-09 m3/mol
excess molar volume ([1]; x1 = 0.6131): -4.66e-07 ± 3.5e-09 m3/mol
excess molar volume ([1]; x1 = 0.6318): -4.516e-07 ± 3.5e-09 m3/mol
excess molar volume ([1]; x1 = 0.6362): -4.516e-07 ± 3.5e-09 m3/mol
excess molar volume ([1]; x1 = 0.6489): -4.37e-07 ± 3.4e-09 m3/mol
excess molar volume ([1]; x1 = 0.6633): -4.244e-07 ± 3.4e-09 m3/mol
excess molar volume ([1]; x1 = 0.6702): -4.188e-07 ± 3.4e-09 m3/mol
excess molar volume ([1]; x1 = 0.6938): -3.98e-07 ± 3.4e-09 m3/mol
excess molar volume ([1]; x1 = 0.6957): -3.938e-07 ± 3.4e-09 m3/mol
excess molar volume ([1]; x1 = 0.6975): -3.923e-07 ± 3.4e-09 m3/mol
excess molar volume ([1]; x1 = 0.7225): -3.669e-07 ± 3.4e-09 m3/mol
excess molar volume ([1]; x1 = 0.7286): -3.606e-07 ± 3.4e-09 m3/mol
excess molar volume ([1]; x1 = 0.7471): -3.413e-07 ± 3.3e-09 m3/mol
excess molar volume ([1]; x1 = 0.752): -3.354e-07 ± 3.3e-09 m3/mol
excess molar volume ([1]; x1 = 0.7584): -3.295e-07 ± 3.3e-09 m3/mol
excess molar volume ([1]; x1 = 0.7813): -3.022e-07 ± 3.3e-09 m3/mol
excess molar volume ([1]; x1 = 0.7951): -2.867e-07 ± 3.3e-09 m3/mol
excess molar volume ([1]; x1 = 0.8055): -2.731e-07 ± 3.3e-09 m3/mol
excess molar volume ([1]; x1 = 0.8278): -2.456e-07 ± 3.2e-09 m3/mol
excess molar volume ([1]; x1 = 0.83): -2.444e-07 ± 3.2e-09 m3/mol
excess molar volume ([1]; x1 = 0.8417): -2.295e-07 ± 3.2e-09 m3/mol
excess molar volume ([1]; x1 = 0.8584): -2.065e-07 ± 3.2e-09 m3/mol
excess molar volume ([1]; x1 = 0.8746): -1.858e-07 ± 3.2e-09 m3/mol
excess molar volume ([1]; x1 = 0.8862): -1.705e-07 ± 3.2e-09 m3/mol
excess molar volume ([1]; x1 = 0.9051): -1.481e-07 ± 3.2e-09 m3/mol
excess molar volume ([1]; x1 = 0.9081): -1.406e-07 ± 3.2e-09 m3/mol
excess molar volume ([1]; x1 = 0.9134): -1.337e-07 ± 3.1e-09 m3/mol
excess molar volume ([1]; x1 = 0.9384): -9.87e-08 ± 3.1e-09 m3/mol
excess molar volume ([1]; x1 = 0.943): -9.15e-08 ± 3.1e-09 m3/mol
excess molar volume ([1]; x1 = 0.9698): -5.42e-08 ± 3.1e-09 m3/mol
excess molar volume ([1]; x1 = 0.9711): -5.33e-08 ± 3.1e-09 m3/mol

CO [methanol]
refractive index [2]: 1.32645 ± 0.0012
mass density [3]: 772.2 ± 3.4 kg/m3

CC(=O)N(C)C [N,N-dimethylethanamide] + CCO
excess molar volume ([1]; x1 = 0.0259): -3.74e-08 ± 3e-09 m3/mol
excess molar volume ([1]; x1 = 0.0456): -6.13e-08 ± 3.1e-09 m3/mol
excess molar volume ([1]; x1 = 0.0769): -9.86e-08 ± 3.1e-09 m3/mol
excess molar volume ([1]; x1 = 0.103): -1.237e-07 ± 3.1e-09 m3/mol
excess molar volume ([1]; x1 = 0.1481): -1.61e-07 ± 3.2e-09 m3/mol
excess molar volume ([1]; x1 = 0.1765): -1.787e-07 ± 3.2e-09 m3/mol
excess molar volume ([1]; x1 = 0.2149): -1.991e-07 ± 3.2e-09 m3/mol
excess molar volume ([1]; x1 = 0.2587): -2.157e-07 ± 3.2e-09 m3/mol
excess molar volume ([1]; x1 = 0.2846): -2.228e-07 ± 3.2e-09 m3/mol
excess molar volume ([1]; x1 = 0.3094): -2.282e-07 ± 3.2e-09 m3/mol
excess molar volume ([1]; x1 = 0.3288): -2.315e-07 ± 3.2e-09 m3/mol
excess molar volume ([1]; x1 = 0.3513): -2.338e-07 ± 3.2e-09 m3/mol
excess molar volume ([1]; x1 = 0.3784): -2.352e-07 ± 3.2e-09 m3/mol
excess molar volume ([1]; x1 = 0.3866): -2.374e-07 ± 3.2e-09 m3/mol
excess molar volume ([1]; x1 = 0.4014): -2.353e-07 ± 3.2e-09 m3/mol
excess molar volume ([1]; x1 = 0.4131): -2.373e-07 ± 3.2e-09 m3/mol
excess molar volume ([1]; x1 = 0.4396): -2.356e-07 ± 3.2e-09 m3/mol
excess molar volume ([1]; x1 = 0.4661): -2.327e-07 ± 3.2e-09 m3/mol
excess molar volume ([1]; x1 = 0.4937): -2.292e-07 ± 3.2e-09 m3/mol
excess molar volume ([1]; x1 = 0.5249): -2.227e-07 ± 3.2e-09 m3/mol
excess molar volume ([1]; x1 = 0.5532): -2.161e-07 ± 3.2e-09 m3/mol
excess molar volume ([1]; x1 = 0.5913): -2.059e-07 ± 3.2e-09 m3/mol
excess molar volume ([1]; x1 = 0.6379): -1.906e-07 ± 3.2e-09 m3/mol
excess molar volume ([1]; x1 = 0.6743): -1.761e-07 ± 3.2e-09 m3/mol
excess molar volume ([1]; x1 = 0.7191): -1.593e-07 ± 3.2e-09 m3/mol
excess molar volume ([1]; x1 = 0.7691): -1.359e-07 ± 3.1e-09 m3/mol
excess molar volume ([1]; x1 = 0.8211): -1.109e-07 ± 3.1e-09 m3/mol
excess molar volume ([1]; x1 = 0.8768): -7.86e-08 ± 3.1e-09 m3/mol
excess molar volume ([1]; x1 = 0.9287): -4.6e-08 ± 3e-09 m3/mol
excess molar volume ([1]; x1 = 0.962): -2.56e-08 ± 3e-09 m3/mol

CCO [ethanol]
refractive index [2]: 1.3592 ± 0.0012
mass density [3]: 772.2 ± 3.4 kg/m3

CC(=O)N(C)C [N,N-dimethylethanamide]
refractive index [2]: 1.43556 ± 0.0007
mass density [3]: 922.4 ± 0.9 kg/m3
